Key:
human M3 = human M3 (Homo sapiens, UniProt P20309); experiment: Calcium mobilization assay, muscarinic selectivity; format: cell-based
human M5 = human M5 (Homo sapiens, UniProt P08912); experiment: Calcium mobilization assay, muscarinic selectivity; format: cell-based
[1] = Intrinsic clearance in human liver microsomes; format: in vitro ADME
Protocol: Intrinsic Clearance in Rat and Human Liver Microsomes
The in vitro intrinsic clearance (CL int) was investigated in commercially obtained hepatic microsomes from rat and human donors using the substrate depletion (i.e., loss-of-parent vs. time, or t 1/2 method) approach with analyte detection via liquid chromatography-tandem mass spectrometry (LC-MS/MS). For each species, mean %parent remaining values at each time point were calculated from replicates raw data (analyte:IS peak area ratios) and used to determine in vitro t 1/2 and CLint.
Experiments were carried out using a robot-assisted (TECAN model Evo 200). Compound was incubated (1 µM final concentration) in buffer (100 mM potassium phosphate pH 7.4 with 3 mM MgCl2) containing hepatic microsomes (0.5 mg/mL final concentration) from multiple species, discretely, at 37 °C under constant orbital shaking. After 5 minutes (pre-incubation), reactions were initiated by addition of nicotinamide adenine dinucleotide phosphate (NADPH, 1 mM final concentration). At selected time intervals (0, 3, 7, 15, 25, and 45 minutes) post-addition of NADPH, aliquots (50 µL) were taken and placed into a 96-shallow-well plate containing ice cold acetonitrile (150 µL) with carbamazepine (IS, 50 nM). The plates were then centrifuged (3000 rcf at 4 °C) for 10 minutes. The supernatants were transferred to a new 96-shallow-well daughter plate and diluted (1:1 v/v) with water (Milli-Q filtered). The plates were then sealed in preparation for LC-MS/MS analysis (see below).
Raw LC-MS/MS peak area data generated from the assay samples were used to construct natural log-transformed %parent remaining vs. time plots (using t = 0 minute post-NADPH addition sample data as starting point set to 100%). In vitro compound half-life (t 1/2) values were obtained using the following […]
k is the slope from linear regression analysis of the natural log-transformed data (using means from Where all replicates at each time point). Resulting t 1/2 values were then used to calculate hepatic CLint values according to the following equation and with the use of species-specific scale-up factors for liver weight (grams) per total body weight (kg): […]
CLint = in vitro t1/2 x 0.5 mg microsomes x 1 gram liver x kg body wt aScale-up factors used are 45 (rat) and 20 (human).2
Predicted hepatic clearance (CLhep) was calculated using the following equation: […]
Qh represents hepatic blood flow (mL/min/kg): 21 for human, 70 for rat, and 90 for mouse.
Prepared samples were injected (10 µL each) onto an AB Sciex Triple Quad 4500 mass spectrometer system with an Agilent 1260 Infinity II pump and autosampler. Mass spectrometer conditions are described in Table S1. Quantitation of compounds was performed via AB Sciex Multiquant software using the raw analyte:IS peak area ratios. The typical detection range was 0.5 ng/mL to ≥ 5,000 ng/mL utilizing a quadratic equation regression with 1/x2 weighting. […]
Table S1. LC-MS/MS Conditions*
Mobile phase A 0.5% Formic Acid in Water
Mobile phase B 0.5% Formic Acid in Acetonitrile
Gradient Time % Mobile Phase B

[2] = Binding in brain homogenate from rat (equilibrium dialysis); format: in vitro ADME
Protocol: Binding in brain homogenate from rat.
Determination of fraction unbound (f u) in brain homogenate from rat was conducted using the same methodology and procedure than described for plasma protein binding assay with the following modifications: 1) a final compound concentration of 1 μM was used, 2) naïve rat brains were homogenized in DPBS (1:3 composition of brain: DPBS, w/w) using a Mini-Bead Beater™ machine in order to obtain […]
The diluted fraction unbound (f u2) in brain was calculated as (analyte to IS MS peak area ratio from Trans-buffer side) / (analyte to IS MS peak area ratio from Cis-brain homogenate side). Undiluted fraction unbound for the brain was calculated using the following equation: […]
Mean values for each species were calculated from 3 replicates. […]

Adrenergic α1D = target: T1, Adrenergic α1D (Homo sapiens, UniProt P25100); experiment: Lead Profiling Screen – Eurofins Panlabs; format: binding; settings: read-out: % inh at 10 μM
T1 construct: Eurofins Panlabs (contract screen)
T1 sequence (P25100 whole entry): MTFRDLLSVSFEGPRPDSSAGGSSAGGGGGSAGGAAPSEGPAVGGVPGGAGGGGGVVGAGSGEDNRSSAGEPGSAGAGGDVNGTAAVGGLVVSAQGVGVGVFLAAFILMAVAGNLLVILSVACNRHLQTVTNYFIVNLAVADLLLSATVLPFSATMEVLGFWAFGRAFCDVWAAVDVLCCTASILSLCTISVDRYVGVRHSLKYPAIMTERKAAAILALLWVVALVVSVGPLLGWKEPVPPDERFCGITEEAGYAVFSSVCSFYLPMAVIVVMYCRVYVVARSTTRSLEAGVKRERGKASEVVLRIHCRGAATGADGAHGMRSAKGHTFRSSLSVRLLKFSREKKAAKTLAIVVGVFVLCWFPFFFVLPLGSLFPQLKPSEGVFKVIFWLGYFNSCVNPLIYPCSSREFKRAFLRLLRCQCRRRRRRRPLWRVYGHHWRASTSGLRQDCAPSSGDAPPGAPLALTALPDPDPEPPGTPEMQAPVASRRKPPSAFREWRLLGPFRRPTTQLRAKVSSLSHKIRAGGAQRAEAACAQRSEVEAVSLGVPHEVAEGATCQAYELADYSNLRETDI

Adrenergic α2A = target: T2, Adrenergic α2A (Homo sapiens, UniProt P08913); experiment: Lead Profiling Screen – Eurofins Panlabs; format: binding; settings: read-out: % inh at 10 μM
T2 construct: Eurofins Panlabs (contract screen)
T2 sequence (P08913 whole entry): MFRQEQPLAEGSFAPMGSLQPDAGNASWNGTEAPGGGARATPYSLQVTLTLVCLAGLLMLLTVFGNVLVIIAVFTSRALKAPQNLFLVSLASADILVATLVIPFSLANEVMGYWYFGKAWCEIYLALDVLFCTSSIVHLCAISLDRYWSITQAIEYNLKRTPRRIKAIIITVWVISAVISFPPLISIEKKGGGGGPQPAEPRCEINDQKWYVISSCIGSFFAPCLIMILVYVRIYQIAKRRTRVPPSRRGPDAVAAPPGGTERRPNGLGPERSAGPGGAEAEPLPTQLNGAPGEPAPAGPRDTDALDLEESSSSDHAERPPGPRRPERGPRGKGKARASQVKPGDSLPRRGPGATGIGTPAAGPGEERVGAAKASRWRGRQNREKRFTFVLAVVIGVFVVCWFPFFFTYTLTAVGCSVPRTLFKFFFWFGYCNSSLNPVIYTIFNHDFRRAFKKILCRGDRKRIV

[3] = system: Calcium Channel L-Type, Benzothiazepine; experiment: Lead Profiling Screen – Eurofins Panlabs; format: binding, rat
Dopamine D1 = target: T3, Dopamine D1 (Homo sapiens, UniProt P21728); experiment: Lead Profiling Screen – Eurofins Panlabs; format: binding; settings: read-out: % inh at 10 μM
T3 construct: Eurofins Panlabs (contract screen)
T3 sequence (P21728 whole entry): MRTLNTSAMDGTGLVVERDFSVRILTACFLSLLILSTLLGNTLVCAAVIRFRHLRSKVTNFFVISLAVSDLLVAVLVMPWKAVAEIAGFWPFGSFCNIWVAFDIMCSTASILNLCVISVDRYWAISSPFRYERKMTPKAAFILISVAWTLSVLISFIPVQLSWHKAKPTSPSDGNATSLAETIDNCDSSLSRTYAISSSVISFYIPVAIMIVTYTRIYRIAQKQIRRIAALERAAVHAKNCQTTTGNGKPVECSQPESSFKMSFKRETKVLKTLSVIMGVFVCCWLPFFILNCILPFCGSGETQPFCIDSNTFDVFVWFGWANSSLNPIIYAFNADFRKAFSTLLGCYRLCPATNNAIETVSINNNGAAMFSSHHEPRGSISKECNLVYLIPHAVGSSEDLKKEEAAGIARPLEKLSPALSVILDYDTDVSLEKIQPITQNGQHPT

[4] = target: T4, Epidermal Growth Factor (EGF) (Homo sapiens, UniProt P00533); experiment: Lead Profiling Screen – Eurofins Panlabs; format: binding; settings: read-out: % inh at 10 μM
T4 construct: Eurofins Panlabs (contract screen)
T4 sequence (P00533 25-1210): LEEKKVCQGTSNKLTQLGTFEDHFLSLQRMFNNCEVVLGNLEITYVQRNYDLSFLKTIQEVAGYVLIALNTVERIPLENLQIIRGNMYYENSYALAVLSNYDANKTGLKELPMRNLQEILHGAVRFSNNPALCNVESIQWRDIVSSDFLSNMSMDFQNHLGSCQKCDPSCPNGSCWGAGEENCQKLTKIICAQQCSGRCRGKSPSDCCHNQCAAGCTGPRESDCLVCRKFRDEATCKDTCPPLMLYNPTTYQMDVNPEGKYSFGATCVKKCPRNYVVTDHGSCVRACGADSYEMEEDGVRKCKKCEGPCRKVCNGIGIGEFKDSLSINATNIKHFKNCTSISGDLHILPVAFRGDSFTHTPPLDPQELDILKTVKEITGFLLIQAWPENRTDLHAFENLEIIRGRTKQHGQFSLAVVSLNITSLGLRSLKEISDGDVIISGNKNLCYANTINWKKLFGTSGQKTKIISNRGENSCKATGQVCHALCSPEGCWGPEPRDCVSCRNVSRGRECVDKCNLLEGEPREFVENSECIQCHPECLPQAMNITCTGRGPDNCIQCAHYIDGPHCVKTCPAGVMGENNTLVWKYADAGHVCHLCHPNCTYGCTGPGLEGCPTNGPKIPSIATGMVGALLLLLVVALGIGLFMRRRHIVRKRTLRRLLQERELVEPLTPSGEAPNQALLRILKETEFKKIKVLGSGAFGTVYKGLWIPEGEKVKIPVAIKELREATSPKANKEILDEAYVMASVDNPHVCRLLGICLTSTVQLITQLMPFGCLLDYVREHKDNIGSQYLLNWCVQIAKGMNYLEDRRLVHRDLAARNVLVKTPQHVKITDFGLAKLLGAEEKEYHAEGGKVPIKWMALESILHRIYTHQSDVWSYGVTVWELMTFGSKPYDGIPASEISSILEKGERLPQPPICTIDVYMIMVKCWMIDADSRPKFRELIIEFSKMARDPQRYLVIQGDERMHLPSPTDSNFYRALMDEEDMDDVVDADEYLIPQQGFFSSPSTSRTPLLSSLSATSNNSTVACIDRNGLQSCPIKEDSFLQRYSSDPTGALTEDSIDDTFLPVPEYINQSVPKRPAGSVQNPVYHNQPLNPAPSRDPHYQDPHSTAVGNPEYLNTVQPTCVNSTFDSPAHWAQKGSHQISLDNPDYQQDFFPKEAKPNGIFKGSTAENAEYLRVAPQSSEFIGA

Imidazoline I2, Central = experiment: Lead Profiling Screen – Eurofins Panlabs; format: binding, rat
Melatonin MT1 = Melatonin MT1 (Homo sapiens, UniProt P48039); experiment: Lead Profiling Screen – Eurofins Panlabs; format: binding; settings: read-out: % inh at 10 μM
Muscarinic M2 = Muscarinic M2 (Homo sapiens, UniProt P08172); experiment: Lead Profiling Screen – Eurofins Panlabs; format: binding; settings: read-out: % inh at 10 μM
Sequence of Muscarinic M2 (P08172 whole entry): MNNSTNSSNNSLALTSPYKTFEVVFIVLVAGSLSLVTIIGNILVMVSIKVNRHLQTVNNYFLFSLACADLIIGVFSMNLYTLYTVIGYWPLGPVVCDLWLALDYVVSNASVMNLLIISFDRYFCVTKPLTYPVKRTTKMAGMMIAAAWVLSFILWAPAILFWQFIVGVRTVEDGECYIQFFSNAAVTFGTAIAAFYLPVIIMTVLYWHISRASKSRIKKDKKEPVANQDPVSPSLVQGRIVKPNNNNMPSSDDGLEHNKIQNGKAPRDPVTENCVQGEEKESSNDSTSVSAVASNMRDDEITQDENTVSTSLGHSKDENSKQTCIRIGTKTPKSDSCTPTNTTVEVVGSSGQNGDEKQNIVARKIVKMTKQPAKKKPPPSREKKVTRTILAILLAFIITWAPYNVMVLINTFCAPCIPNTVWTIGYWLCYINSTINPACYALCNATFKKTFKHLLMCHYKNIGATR

Neuropeptide Y Y1 = Neuropeptide Y Y1 (Homo sapiens, UniProt P25929); experiment: Lead Profiling Screen – Eurofins Panlabs; format: binding; settings: read-out: % inh at 10 μM
Sequence of Neuropeptide Y Y1 (P25929 whole entry): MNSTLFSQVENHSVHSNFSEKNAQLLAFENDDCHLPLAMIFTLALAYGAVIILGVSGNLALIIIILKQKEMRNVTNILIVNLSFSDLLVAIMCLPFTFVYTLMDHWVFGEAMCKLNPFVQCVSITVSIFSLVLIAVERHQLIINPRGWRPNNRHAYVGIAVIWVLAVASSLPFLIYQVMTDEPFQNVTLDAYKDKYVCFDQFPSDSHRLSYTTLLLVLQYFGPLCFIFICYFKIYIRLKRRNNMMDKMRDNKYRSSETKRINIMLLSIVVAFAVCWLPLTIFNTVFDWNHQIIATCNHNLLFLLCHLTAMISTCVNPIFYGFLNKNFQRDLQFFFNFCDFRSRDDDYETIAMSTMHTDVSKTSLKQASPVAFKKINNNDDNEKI

Nicotinic Acetylcholine = experiment: Lead Profiling Screen – Eurofins Panlabs; format: binding, human
Opiate κ (OP2, KOP) = Opiate κ (OP2, KOP) (Homo sapiens, UniProt P41145); experiment: Lead Profiling Screen – Eurofins Panlabs; format: binding; settings: read-out: % inh at 10 μM
Sequence of Opiate κ (OP2, KOP) (P41145 whole entry): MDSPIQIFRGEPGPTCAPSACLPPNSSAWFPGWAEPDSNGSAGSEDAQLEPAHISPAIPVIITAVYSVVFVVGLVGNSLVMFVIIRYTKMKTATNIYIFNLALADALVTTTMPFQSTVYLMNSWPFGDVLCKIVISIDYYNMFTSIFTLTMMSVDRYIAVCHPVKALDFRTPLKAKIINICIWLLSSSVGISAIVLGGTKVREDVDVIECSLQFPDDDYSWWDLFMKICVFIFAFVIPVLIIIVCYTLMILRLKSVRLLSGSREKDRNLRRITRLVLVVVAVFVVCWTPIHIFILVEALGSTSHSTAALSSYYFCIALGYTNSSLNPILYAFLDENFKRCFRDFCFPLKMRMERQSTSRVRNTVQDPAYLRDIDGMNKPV

Opiate μ (OP3, MOP) = Opiate μ (OP3, MOP) (Homo sapiens, UniProt P35372); experiment: Lead Profiling Screen – Eurofins Panlabs; format: binding; settings: read-out: % inh at 10 μM
Prostanoid EP4 = Prostanoid EP4 (Homo sapiens, UniProt P35408); experiment: Lead Profiling Screen – Eurofins Panlabs; format: binding; settings: read-out: % inh at 10 μM
Sodium Channel, Site 2 = experiment: Lead Profiling Screen – Eurofins Panlabs; format: binding, rat

Sequence of human M5 (P08912 whole entry): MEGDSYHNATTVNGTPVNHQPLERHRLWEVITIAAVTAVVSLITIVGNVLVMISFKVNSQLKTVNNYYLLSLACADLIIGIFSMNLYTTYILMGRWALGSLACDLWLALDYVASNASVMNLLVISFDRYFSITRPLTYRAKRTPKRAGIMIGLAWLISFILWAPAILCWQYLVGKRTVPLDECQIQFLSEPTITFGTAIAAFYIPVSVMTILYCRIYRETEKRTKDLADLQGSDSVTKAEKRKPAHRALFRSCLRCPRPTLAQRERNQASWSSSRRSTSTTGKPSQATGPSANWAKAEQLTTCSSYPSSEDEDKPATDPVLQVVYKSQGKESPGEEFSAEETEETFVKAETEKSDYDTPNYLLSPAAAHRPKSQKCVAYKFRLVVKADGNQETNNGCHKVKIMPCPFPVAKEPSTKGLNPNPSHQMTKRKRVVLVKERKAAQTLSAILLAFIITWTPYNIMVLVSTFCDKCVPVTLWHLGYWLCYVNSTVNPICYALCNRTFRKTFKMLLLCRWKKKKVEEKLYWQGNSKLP
Sequence of human M3 (P20309 whole entry): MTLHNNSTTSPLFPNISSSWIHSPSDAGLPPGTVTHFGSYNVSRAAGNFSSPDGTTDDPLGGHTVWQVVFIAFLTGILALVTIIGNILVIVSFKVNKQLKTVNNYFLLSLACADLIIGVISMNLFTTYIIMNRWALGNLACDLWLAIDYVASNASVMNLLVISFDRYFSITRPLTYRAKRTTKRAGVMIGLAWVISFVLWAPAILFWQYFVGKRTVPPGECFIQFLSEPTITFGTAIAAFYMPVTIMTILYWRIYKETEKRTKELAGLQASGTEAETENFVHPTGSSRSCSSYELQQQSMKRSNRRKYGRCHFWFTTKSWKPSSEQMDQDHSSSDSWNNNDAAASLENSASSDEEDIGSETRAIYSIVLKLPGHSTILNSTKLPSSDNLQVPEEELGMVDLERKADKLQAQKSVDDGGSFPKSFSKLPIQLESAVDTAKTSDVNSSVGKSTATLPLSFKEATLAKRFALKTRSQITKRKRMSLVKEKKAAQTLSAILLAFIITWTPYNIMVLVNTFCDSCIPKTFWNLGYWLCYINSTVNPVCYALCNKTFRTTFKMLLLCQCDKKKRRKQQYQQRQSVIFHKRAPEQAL

Cc1nc(C)c2c(n1)sc1c(NCc3ccc(C(C)(C)O)cc3)nccc12 [22g]
human M3 %Ach Max (human M3): inactive | human M3 EC50 (human M3): inactive | human M5 %Ach Max (human M5): inactive | human M5 EC50 (human M5): inactive | CLint scaled at 1 µM ([1]; pH 7.4, human liver microsomes): 26 mL/min/kg | CLhep, human ([1]; predicted hepatic clearance from microsomal CLint): 12 mL/min/kg | rat fbrain ([2]; fraction unbound, equilibrium dialysis, rat brain homogenates): 0.016 | fraction unbound at 6 h, 1 µM ([2]; rat, brain homogenate, in %, read-out: fu,brain (rat brain homogenate)): 0.01 to 0.05 | inhibition at 10 µM (Adrenergic α1D): 5% | inhibition at 10 µM (Adrenergic α2A): -9% | % inh at 10 μM [3]: 6% | inhibition at 10 µM (Dopamine D1): 21% | inhibition at 10 µM [4]: -3% | % inh at 10 μM (Imidazoline I2, Central): -1% | inhibition at 10 µM (Melatonin MT1): 7% | inhibition at 10 µM (Muscarinic M2): 10% | inhibition at 10 µM (Neuropeptide Y Y1): -1% | % inh at 10 μM (Nicotinic Acetylcholine): -2% | inhibition at 10 µM (Opiate κ (OP2, KOP)): 4% | inhibition at 10 µM (Opiate μ (OP3, MOP)): 7% | inhibition at 10 µM (Prostanoid EP4): 16% | % inh at 10 μM (Sodium Channel, Site 2): 3%

Source: publication PMC11487561 (ACS Chemical Neuroscience, 2024)
